The results in this text go back to patent US8722849B2, “Polypeptides” (Novo Nordisk A/S, priority 2011, dated 2014).

≈ marks a conversion by molar mass, not a printed value. Where two headings read alike, the source gives them in different places. Starred links: 1 amine or outer side, 2 acyl side, 3 side chain; linkers in the order of their positions; H or OH if unused. Positions of bridges follow the written chain, without caps; N, C: chain ends. Residues, ends and D or L forms follow the SMILES beside them. *: point of attachment. C20 diacid = O=C(O)CCCCCCCCCCCCCCCCCCC(=O)*; C18 diacid = O=C(O)CCCCCCCCCCCCCCCCC(=O)*; γGlu = O=C(O)[C@H](CCC(=O)[*:2])N[*:1]

Data set [1] deals with T1, human amylin receptor (amylin 3(a) receptor: human calcitonin receptor + RAMP-3) (Homo sapiens, UniProt O60896+P30988).
T1 construct: expressed in transfected cells; host or cells: BHK570
T1 sequence (P30988 25-474): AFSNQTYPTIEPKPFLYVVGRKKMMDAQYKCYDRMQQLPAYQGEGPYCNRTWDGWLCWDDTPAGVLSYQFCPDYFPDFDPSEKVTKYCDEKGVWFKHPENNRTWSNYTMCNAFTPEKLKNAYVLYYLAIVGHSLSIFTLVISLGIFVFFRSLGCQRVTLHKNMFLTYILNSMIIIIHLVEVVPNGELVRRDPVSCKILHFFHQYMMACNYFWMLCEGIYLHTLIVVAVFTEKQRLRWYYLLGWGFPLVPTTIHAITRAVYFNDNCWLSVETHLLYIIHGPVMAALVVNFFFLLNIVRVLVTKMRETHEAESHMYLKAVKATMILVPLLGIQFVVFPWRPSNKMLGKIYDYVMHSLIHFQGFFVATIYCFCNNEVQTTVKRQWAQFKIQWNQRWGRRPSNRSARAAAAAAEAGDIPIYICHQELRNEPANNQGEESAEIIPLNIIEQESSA
T1 sequence (O60896 24-148 partner): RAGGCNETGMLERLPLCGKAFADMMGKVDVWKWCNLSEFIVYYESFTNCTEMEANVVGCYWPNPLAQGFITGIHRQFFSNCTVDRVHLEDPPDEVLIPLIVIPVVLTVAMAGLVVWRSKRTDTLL
Kind of data set: Assay (II)a functional CRE-luciferase assay, human amylin receptor. It counts as cell-based. The note with it: Table 2; BHK amylin 3(a)-receptor/CRE-luc cells.

The target in data set [2] is T2, human calcitonin receptor (Homo sapiens, UniProt P30988).
T2 construct: expressed in transfected cells; host or cells: BHK570
T2 sequence (P30988 25-474): T1 sequence (P30988 25-474)
Kind of data set: Assay (II)a functional CRE-luciferase assay, human calcitonin receptor. It counts as cell-based. The note with it: Table 7; human calcitonin (CTa) receptor.

The nature of data set [3]: Assay (III) ThT fibrillation assay for physical stability. The class given is physicochemical. A digest of the protocol: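 Freshly prepared formulations, pH-adjusted, with 1 μM ThT; four or eight replicates incubated at 37 °C under 960 rpm orbital shaking. Fluorescence (ex 444/em 485 nm) read every 20 min; […]. Peptide concentration measured by RP-HPLC before and after the run.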

The nature of data set [4]: Assay (IV) determination of solubility. The class given is physicochemical. A digest of the protocol: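 Stock ~500 nmol/ml in water; 1:1 with 100 mM buffer, pH 3.0–8.0 (glycylglycine ≤5.0, bistrispropane ≥6.0); 18 h RT; spin; HPLC quantitation of soluble polypeptide.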
Setting [5] is: bistrispropane buffer, pH 6, pH 6.0, read-out: Solubility pH 6.0.
[6] abbreviates: bistrispropane buffer, pH 6.5, pH 6.5, read-out: Solubility pH 6.5.
Setting [7] is: bistrispropane buffer, pH 7, pH 7.0, read-out: Solubility pH 7.0.
Setting [8] is: bistrispropane buffer, pH 7.5, pH 7.5, read-out: Solubility pH 7.5.
Where [9] appears, read: bistrispropane buffer, pH 8, pH 8.0, read-out: Solubility pH 8.0.
The mark [10] stands for this setting: glycylglycine buffer, pH 3, pH 3.0, read-out: Solubility pH 3.0.
[11] abbreviates: glycylglycine buffer, pH 4, pH 4.0, 18 hours at room temperature, Table 2, read-out: Solubility pH 4.0.
The mark [12] stands for this setting: glycylglycine buffer, pH 4, pH 4.0, read-out: Solubility pH 4.0.
Where [13] appears, read: glycylglycine buffer, pH 5, pH 5.0, read-out: Solubility pH 5.0.
The mark [14] stands for this setting: bistrispropane buffer, pH 7, pH 7.0, 18 hours at room temperature, Table 3, read-out: Solubility pH 7.0.

In the case of `CC[C@H](C)[C@H](NC(=O)[C@@H]1CCCN1C(=O)CNC(=O)[C@H](Cc1ccccc1)NC(=O)[C@H](CC(N)=O)NC(=O)[C@H](CC(N)=O)NC(=O)[C@H](CO)NC(=O)[C@H](CO)NC(=O)[C@H](Cc1c[nH]cn1)NC(=O)[C@H](Cc1c[nH]cn1)NC(=O)[C@H](CC(C)C)NC(=O)[C@H](Cc1ccccc1)NC(=O)[C@H](CCC(=O)O)NC(=O)[C@H](C)NC(=O)[C@H](CC(C)C)NC(=O)[C@H](CCCNC(=N)N)NC(=O)[C@H](CCC(N)=O)NC(=O)[C@@H](NC(=O)[C@H](C)NC(=O)[C@@H]1CSSC[C@H](NC(=O)[C@H](CCCCN)NC(=O)[C@H](CO)NC(=O)CC[C@H](NC(=O)CCCCCCCCCCCCCCCCCCC(=O)O)C(=O)O)C(=O)N[C@@H](CC(N)=O)C(=O)N[C@@H]([C@@H](C)O)C(=O)N[C@@H](C)C(=O)N[C@@H]([C@@H](C)O)C(=O)N1)[C@@H](C)O)C(=O)N[C@@H](CC(C)C)C(=O)N1CCC[C@H]1C(=O)N1CCC[C@H]1C(=O)N[C@H](C(=O)N[C@@H](CC(N)=O)C(=O)N[C@H](C(=O)NCC(=O)N[C@@H](CO)C(=O)N[C@@H](Cc1c[nH]cn1)C(=O)N[C@H](C(=O)N[C@@H](Cc1ccc(O)cc1)C(N)=O)[C@@H](C)O)C(C)C)[C@@H](C)O` [Example 85, N-alpha-[(S)-4-Carboxy-4-(19-carboxynonadecanoylamino)butyryl]-Ser-[Glu14,His17,His35]-pramlintide] ({C20 diacid-γGlu}-SKCNTATCATQRLAEFLHHSSNNFGPILPPTNVGSHTY-NH2; disulfide 3-8 (inferred); C-terminus assumed), the EC50 is 0.133 nM in data set [1] and 0.153 nM in data set [2]. Moreover, in data set [3] (ThT fibrillation assay), the “ThT pH 4.0 lag time” value is recorded as above 45 h. The “ThT pH 4.0 lag time (h)” value in data set [3] (ThT fibrillation assay) is on record as above 45 h. The solubility at 18 h in data set [4] (setting [5]) was 185 µM (≈ 845 µg/mL); in data set [4] (setting [6]), 64 µM (≈ 292 µg/mL); in data set [4] (setting [7]) it was 22 µM (≈ 100 µg/mL); in data set [4] (setting [8]), 47 µM (≈ 215 µg/mL); in data set [4] (setting [9]) it was 109 µM (≈ 498 µg/mL); in data set [4] (setting [10]) it was above 200 µM. Also, the solubility at 18 h in data set [4] (setting [11]), in data set [4] (setting [12]) and in data set [4] (setting [13]) was above 200 µM throughout.
For `CC[C@H](C)[C@H](NC(=O)[C@@H]1CCCN1C(=O)CNC(=O)[C@H](Cc1ccccc1)NC(=O)[C@H](CC(N)=O)NC(=O)[C@H](CC(N)=O)NC(=O)[C@H](CO)NC(=O)[C@H](CO)NC(=O)[C@H](Cc1c[nH]cn1)NC(=O)[C@H](Cc1c[nH]cn1)NC(=O)[C@H](CC(C)C)NC(=O)[C@H](Cc1ccccc1)NC(=O)[C@H](CCC(=O)O)NC(=O)[C@H](C)NC(=O)[C@H](CC(C)C)NC(=O)[C@H](CCCNC(=N)N)NC(=O)[C@H](CCC(N)=O)NC(=O)[C@@H](NC(=O)[C@H](C)NC(=O)[C@@H]1CSSC[C@H](NC(=O)[C@H](CCCCN)NC(=O)[C@H](CCC(=O)O)NC(=O)CC[C@H](NC(=O)CCCCCCCCCCCCCCCCC(=O)O)C(=O)O)C(=O)N[C@@H](CC(N)=O)C(=O)N[C@@H]([C@@H](C)O)C(=O)N[C@@H](C)C(=O)N[C@@H]([C@@H](C)O)C(=O)N1)[C@@H](C)O)C(=O)N[C@@H](CC(C)C)C(=O)N1CCC[C@H]1C(=O)N1CCC[C@H]1C(=O)N[C@H](C(=O)N[C@@H](CC(N)=O)C(=O)N[C@H](C(=O)NCC(=O)N[C@@H](CO)C(=O)N[C@@H](Cc1c[nH]cn1)C(=O)N[C@H](C(=O)N[C@@H](Cc1ccc(O)cc1)C(N)=O)[C@@H](C)O)C(C)C)[C@@H](C)O` [Example 60, N-alpha-[(S)-4-Carboxy-4-(17-carboxyheptadecanoylamino)butyryl]-Glu-[Glu14,His17,His35]-pramlintide] ({C18 diacid-γGlu}-EKCNTATCATQRLAEFLHHSSNNFGPILPPTNVGSHTY-NH2; disulfide 3-8), the EC50 in data set [1] worked out at 0.102 nM; in data set [2] it was 0.169 nM. In data set [3] (ThT fibrillation assay), the “ThT pH 4.0 lag time (h)” value was determined as 10 h. Further, the solubility at 18 h in data set [4] (setting [5]), in data set [4] (setting [6]), in data set [4] (setting [14]), in data set [4] (setting [7]), in data set [4] (setting [8]) and in data set [4] (setting [9]) was above 200 µM throughout. The solubility at 18 h in data set [4] (setting [10]), in data set [4] (setting [11]), in data set [4] (setting [12]) and in data set [4] (setting [13]) was above 200 µM throughout.
With `CC[C@H](C)[C@H](NC(=O)[C@@H]1CCCN1C(=O)CNC(=O)[C@H](Cc1ccccc1)NC(=O)[C@H](CC(N)=O)NC(=O)[C@H](CC(N)=O)NC(=O)[C@H](CO)NC(=O)[C@H](CO)NC(=O)[C@H](Cc1c[nH]cn1)NC(=O)[C@H](Cc1c[nH]cn1)NC(=O)[C@H](CC(C)C)NC(=O)[C@H](Cc1ccccc1)NC(=O)[C@H](CCC(=O)O)NC(=O)[C@H](C)NC(=O)[C@H](CC(C)C)NC(=O)[C@H](CCCNC(=N)N)NC(=O)[C@H](CCC(N)=O)NC(=O)[C@@H](NC(=O)[C@H](C)NC(=O)[C@@H]1CSSC[C@H](NC(=O)CNC(=O)CC[C@H](NC(=O)CCCCCCCCCCCCCCCCCCC(=O)O)C(=O)O)C(=O)N[C@@H](CC(N)=O)C(=O)N[C@@H]([C@@H](C)O)C(=O)N[C@@H](C)C(=O)N[C@@H]([C@@H](C)O)C(=O)N1)[C@@H](C)O)C(=O)N[C@@H](CC(C)C)C(=O)N1CCC[C@H]1C(=O)N1CCC[C@H]1C(=O)N[C@H](C(=O)N[C@@H](CC(N)=O)C(=O)N[C@H](C(=O)NCC(=O)N[C@@H](CO)C(=O)N[C@@H](CC(N)=O)C(=O)N[C@H](C(=O)N1CCC[C@H]1C(N)=O)[C@@H](C)O)C(C)C)[C@@H](C)O` [Example 91, N-alpha-[(S)-4-Carboxy-4-(19-carboxynonadecanoylamino)butyryl]-[Gly1,Glu14,His17,Pro37]-pramlintide] ({C20 diacid-γGlu}-GCNTATCATQRLAEFLHHSSNNFGPILPPTNVGSNTP-NH2; disulfide 2-7 (inferred); C-terminus assumed), the figures for the EC50 in data set [1] and in data set [2] were 0.054 nM and 0.052 nM, respectively. Moreover, the “ThT pH 4.0 lag time” value in data set [3] (Table 8) and in data set [3] (ThT fibrillation assay) was 29 h throughout. The “ThT pH 4.0 lag time (h)” value in data set [3] (ThT fibrillation assay) is given as 29 h. Besides, the solubility at 18 h in data set [4] (setting [5]) is above 200 µM; in data set [4] (setting [6]), above 200 µM; in data set [4] (setting [14]), above 200 µM; in data set [4] (bistrispropane buffer, pH 7, pH 7.0, Table 8, read-out: Solubility pH 7.0), above 200 µM; in data set [4] (setting [7]), above 200 µM; in data set [4] (setting [8]), above 200 µM. Further, the solubility at 18 h in data set [4] (setting [9]), in data set [4] (setting [10]), in data set [4] (setting [11]), in data set [4] (setting [12]) and in data set [4] (setting [13]) was above 200 µM throughout.

As a reminder, the EC50 is the midpoint of the concentration-response curve. The solubility is how much of the substance goes into solution per volume.
